How the values were obtained:
[1] = tested on: MCF-7 cells (human breast cancer cell line); test: In vitro antiproliferative activity, SRB assay, MCF-7; format: cell-based; conditions: MCF7, 72 h incubation, mean ± SD, LAS, MON, SAL as sodium salts, '---' = inactive (undetectable IC50 in tested concentration range)
Description: (§1) Each experiment was repeated at least three times separately.

[2] = tested on: MV-4-11 cells (human acute myeloid leukemia cell line); test: In vitro antiproliferative activity, SRB assay, MV-4-11; format: cell-based; conditions: MV4-11, 72 h incubation, mean ± SD, LAS, MON, SAL as sodium salts
Description: as §1

[3] = tested on: MCF10A cells (normal mammary epithelial cell line); test: Cytotoxicity on non-tumor cells, SRB assay, MCF10A; format: cell-based; conditions: Homo sapiens, MCF-10A, 72 h incubation, mean ± SD, '---' = inactive (undetectable IC50 in tested concentration range)
Description: as §1

[4] = tested on: SKBR-3 cells (human breast cancer cell line); test: In vitro antiproliferative activity, SRB assay, SKBR-3; format: cell-based; conditions: mean ± SD, LAS, MON, SAL as sodium salts
Description: as §1

[5] = tested on: BALB/3T3 cells (normal embryonic fibroblasts); test: Cytotoxicity on non-tumor cells, SRB assay, BALB/3T3; format: cell-based, murine; conditions: Mus musculus, non-tumor cell line, 72 h incubation, mean ± SD, '---' = inactive (undetectable IC50 in tested concentration range)
Description: as §1

[6] = tested on: LoVo/DX cells (doxorubicin-resistant human colon adenocarcinoma sub-line, ABCB1 overexpression); test: In vitro antiproliferative activity, SRB assay, LoVo/DX; conditions: Homo sapiens, LoVo/DX, 72 h, read-out: IC50 LoVo/DX
[7] = as above
[8] = tested on: LoVo cells (human colon adenocarcinoma, drug-sensitive variant); test: In vitro antiproliferative activity, SRB assay, LoVo; format: cell-based; conditions: 72 h incubation, mean ± SD, LAS, MON, SAL as sodium salts
Description: as §1

[9] = tested on: JIMT-1 cells (human breast cancer cell line); test: In vitro antiproliferative activity, SRB assay, JIMT-1; format: cell-based; conditions: mean ± SD, LAS, MON, SAL as sodium salts, '---' = inactive (undetectable IC50 in tested concentration range)
Description: as §1

[10] = Homo sapiens, SK-BR-3, 72 h incubation
[11] = mouse (BALB/3T3), human (LoVo/DX)
[12] = Homo sapiens, JIMT-1, 72 h incubation

SMILES	IC50 [1] [nM]	IC50 [2] [nM]	IC50 [3] [nM]	IC50 [4, 10] [nM]	IC50 [5] [nM]	IC50 [6] [nM]	selectivity ratio at 72 h ([7]; human)	selectivity ratio at 72 h [7, 11]	IC50 [8] [nM]	IC50 [9, 12] [nM]	IC50 ([4]; 72 h incubation) [nM]	IC50 ([9]; 72 h incubation) [nM]	selectivity ratio at 72 h (in vitro; human)	selectivity ratio at 72 h (in vitro; [11])
C=C(C)[C@@H]1CC[C@]2(C(=O)O)CC[C@]3(C)[C@H](CC[C@@H]4[C@@]5(C)CC[C@H](O)C(C)(C)[C@@H]5CC[C@]43C)[C@@H]12 [BET, betulinic acid]	12600 ± 1570	1420 ± 970	7230 ± 1240	7470 ± 1160	84800 ± 10000	8960 ± 1080	0.81	9.47	16500 ± 6560	9900 ± 2320				
N.N.[Cl][Pt][Cl] [CIS, cisplatin]											4170	8230		
COc1cccc2c1C(=O)c1c(O)c3c(c(O)c1C2=O)C[C@@](O)(C(=O)CO)C[C@@H]3O[C@H]1C[C@H](N)[C@H](O)[C@H](C)O1 [DX, doxorubicin]	130 ± 50	20 ± 4	170 ± 30	110 ± 10	260 ± 140	8740 ± 1460	0.02	0.03	110 ± 4	400 ± 100				
CC[C@@H](C(=O)[C@@H](C)[C@@H](O)[C@H](C)CCc1ccc(C)c(O)c1C(=O)O)[C@H]1O[C@](CC)([C@H]2CC[C@](O)(CC)[C@H](C)O2)C[C@@H]1C [LAS, lasalocid acid]	4440 ± 1340	1960 ± 650	6810 ± 2850	1370 ± 10	9110 ± 3650	4550 ± 270	1.5	2	4050 ± 1020	5550				
CC[C@@]1([C@@H]2O[C@@H]([C@H]3O[C@@](O)(CO)[C@H](C)C[C@@H]3C)C[C@@H]2C)CC[C@H]([C@]2(C)CC[C@]3(C[C@H](O)[C@@H](C)[C@@H]([C@@H](C)[C@@H](OC)[C@H](C)C(=O)O)O3)O2)O1 [MON, monensin]	510 ± 120	30 ± 20	870 ± 230	40 ± 20	1100 ± 240	260 ± 110			90 ± 60	1170 ± 140			3.35	4.23
CC[C@@H](C(=O)[C@@H](C)[C@@H](O)[C@H](C)[C@@H]1O[C@@H]([C@@H](CC)C(=O)O)CC[C@@H]1C)[C@H]1O[C@]2(C=C[C@@H](O)[C@]3(CC[C@@](C)([C@H]4CC[C@](O)(CC)[C@H](C)O4)O3)O2)[C@H](C)C[C@@H]1C [SAL, salinomycin]	930 ± 330	100 ± 30	1280 ± 460	270	1550 ± 860	610 ± 210			250 ± 70	2670			2.1	2.54
C=C(C)[C@@H]1CC[C@]2(C(=O)NCc3cn([C@H]4C=C[C@]5(O[C@H]([C@@H](CC)C(=O)[C@@H](C)[C@@H](O)[C@H](C)[C@@H]6O[C@@H]([C@@H](CC)C(=O)O)CC[C@@H]6C)[C@@H](C)C[C@H]5C)O[C@@]45CC[C@@](C)([C@H]4CC[C@](O)(CC)[C@H](C)O4)O5)nn3)CC[C@]3(C)[C@H](CC[C@@H]4[C@@]5(C)CC[C@H](O)C(C)(C)[C@@H]5CC[C@]43C)[C@@H]12 [compound 18, Salinomycin-betulinic acid dimer]	4190 ± 1820	100 ± 90	10300 ± 4470	340 ± 130	4870 ± 1560	14100 ± 6900			430 ± 130	7280 ± 3110			0.73	0.35
C=C(C)[C@@H]1CC[C@]2(C(=O)OCc3cn([C@H]4C=C[C@]5(O[C@H]([C@@H](CC)C(=O)[C@@H](C)[C@@H](O)[C@H](C)[C@@H]6O[C@@H]([C@@H](CC)C(=O)O)CC[C@@H]6C)[C@@H](C)C[C@H]5C)O[C@@]45CC[C@@](C)([C@H]4CC[C@](O)(CC)[C@H](C)O4)O5)nn3)CC[C@]3(C)[C@H](CC[C@@H]4[C@@]5(C)CC[C@H](O)C(C)(C)[C@@H]5CC[C@]43C)[C@@H]12 [compound 19, Salinomycin-betulinic acid dimer]	6870 ± 3280	290 ± 140	7020 ± 2440	600 ± 260	6220 ± 1440				2660 ± 980	7090 ± 2220				
C=C(C)[C@@H]1CC[C@]2(C(=O)O)CC[C@]3(C)[C@H](CC[C@@H]4[C@@]5(C)CC[C@H](OC(=O)OCc6cn([C@H]7C=C[C@]8(O[C@H]([C@@H](CC)C(=O)[C@@H](C)[C@@H](O)[C@H](C)[C@@H]9O[C@@H]([C@@H](CC)C(=O)O)CC[C@@H]9C)[C@@H](C)C[C@H]8C)O[C@@]78CC[C@@](C)([C@H]7CC[C@](O)(CC)[C@H](C)O7)O8)nn6)C(C)(C)[C@@H]5CC[C@]43C)[C@@H]12 [compound 20, Salinomycin-betulinic acid dimer]	21700 ± 5280	1920 ± 820	30300 ± 13800	3250 ± 240	18700 ± 4570	48600 ± 11800			5180 ± 720	14700 ± 4880			0.62	0.39

Reference: PMC7408349, “Synthesis and Anticancer Activity of Dimeric Polyether Ionophores” (Biomolecules, 2020)
